Reference: patent publication US20120302636A1, “METHOD OF TREATING A DISORDER ASSOCIATED WITH MTP” (priority 2009, published 2012)

What was measured:
[1] = Example 2: plasma and urine pharmacokinetics; format: in vivo, human
Experimental: Each tablet contained 5 mg (BID), 10 mg (QD), 20 mg (QD), or 30 mg (QD).

[2] = Example 5: fixed-dose or escalating doses, safety; format: in vivo, human
Experimental: Fifty-two Japanese patients with hyperlipidemia (LDL-C between 140 and 220 mg/dL; TG≦400 mg/dL) participated in the study. […] One group received a fixed dose of 2 mg per tablet through the entire study. The other group received escalating doses of 0.5 mg (weeks 1-4), 1 mg (weeks 5-8), and 2 mg (weeks 9-12). For the efficacy analysis, 50 subjects were observed (25 in the fixed-dose group and 25 in the dose escalation group).
The objective of this study was preliminary evaluation of the efficacy (based on serum lipid levels), safety, and pharmacokinetics of the compound of formula (I) administered orally twice daily after breakfast and supper for 12 weeks as a fixed dose (4 mg/day) or escalating dose (1 mg/day, 2 mg/day and 4 mg/day) regimen in patients with hyperlipidemia.

[3] = Example 8: 12-week study in obese subjects, efficacy; conditions: for mean change from baseline to EOT in body weight: 12 weeks
Text: This example involved a clinical study of the compound of formula (I), which was a randomized, double-blind, placebo-controlled, parallel group study to evaluate the efficacy of the compound of formula (I) administered twice daily for twelve weeks in obese subjects.
The study had 180 participants. The 180 subjects comprised 59 males and 121 females, 18 to 65 years old, with BMI≧30 kg/m^2 to <40 kg/m^2. The subjects were separated into four arms of 45 subjects, including one arm as placebo. Each test subject received a tablet taken orally over a period of 12 weeks after breakfast and dinner (BID) (specifically, within 180 minutes of the commencement of eating) of 1 mg, 2.5 mg, or 3.5 mg, using one or multiples of tablets of 1 mg and 2.5 mg of the compound of formula (I) to achieve the total dose. Of the total entrants, 40 entrants completed the 1 mg regimen, 42 entrants completed the 2.5 mg regimen, 41 entrants completed the 3.5 mg regimen, and 42 entrants completed the placebo regimen.
This study was designed to investigate the weight loss effect of the compound of formula (I) administered BID for 12 weeks to obese subjects. The effect of the compound of formula (I) on ancillary efficacy measures (e.g., waist circumference, waist-hip ratio, percent body fat, serum lipid parameters, and markers related to glycemic control, obesity, and inflammation) was also evaluated, as was safety. The primary efficacy variable was body weight change from baseline after 12 weeks of treatment.

[4] = 10, 20, 30 mg QD, initial dose Day 1

Compound: CCOC(=O)C(COC(=O)Cc1ccc(NC(=O)c2ccccc2-c2ccc(C(F)(F)F)cc2)c(C(=O)N(C)C)c1)(C(=O)OCC)c1ccccc1 [compound of formula (I), diethyl 2-((2-(3-(dimethylcarbamoyl)-4-(4′-(trifiuoromethyl)biphenyl-2-ylcarboxamido)phenyl)acetoxy)methyl)-2-phenyl malonate]
- subjects with Cmin detected sporadically ([1]; 5 mg BID): 4 of 6 subjects
- Cmin of the compound of formula (I) ([1]; 10 mg QD, Day 2 to 14): below the limit of quantization
- subjects with Cmin detected sporadically ([1]; 20 mg QD): 1 of 6 subjects
- subjects with Cmin detected sporadically ([1]; 30 mg QD): 4 of 6 subjects
- AUC0-24hr dose proportionality [1, 4]: greater than dose-proportional
- Cmax dose proportionality [1, 4]: greater than dose-proportional
- plasma compound of formula (I) ([1]; after initial dose on Day 1, all groups): quantifiable
- compound in urine ([1]; all groups): not quantifiable in urine
- Cmin of the compound of formula (I) ([1]; all subjects): less than 3 ng/mL
- Cmax and AUC0-24hr dose proportionality ([1]; final dose on Day 14): dose-proportional
- events of gastrointestinal disorders ([2]; dose escalation group): 14
- events of infections and infestations ([2]; dose escalation group): 6
- events of laboratory test ([2]; dose escalation group): 11
- incidence of gastrointestinal disorders (SOC) ([2]; dose escalation group): 34.6%
- incidence of infections and infestations (SOC) ([2]; dose escalation group): 19.2%
- incidence of laboratory test (SOC) ([2]; dose escalation group): 23.1%
- incidence of moderate adverse events ([2]; dose escalation group): 15.4%
- number of adverse events ([2]; dose escalation group): 37
- subjects with adverse events (incidence) ([2]; dose escalation group): 65.4%
- subjects with moderate diarrhea ([2]; dose escalation group): three
- incidence of gastrointestinal disorders ([2]; dose escalation group, Weeks 9 to 12 (4 mg/day)): 20.0%
- events of gastrointestinal disorders ([2]; fixed-dose group): 25
- events of infections and infestations ([2]; fixed-dose group): four
- events of laboratory test ([2]; fixed-dose group): nine
- incidence of gastrointestinal disorders (SOC) ([2]; fixed-dose group): 50.0%
- incidence of infections and infestations (SOC) ([2]; fixed-dose group): 15.4%
- incidence of laboratory test (SOC) ([2]; fixed-dose group): 23.1%
- incidence of moderate adverse events ([2]; fixed-dose group): 15.4%
- number of adverse events ([2]; fixed-dose group): 45
- subjects with adverse events (incidence) ([2]; fixed-dose group): 65.4%
- subjects with moderate diarrhea ([2]; fixed-dose group): four
- incidence of gastrointestinal disorders ([2]; fixed-dose group, Weeks 1 to 4 (4 mg/day)): 46.2%
- systolic and diastolic blood pressure, pulse rate, body temperature, body weight, ultrasonography ([2]; in vivo): No clinically relevant abnormal changes
- death or serious adverse events ([2]; tablets BID, 12 weeks): No death or other serious adverse events occurred
- mean change from baseline to EOT in body weight ([3]; 1 mg BID): -0.70 kg
- mean change from baseline to EOT in body weight ([3]; 2.5 mg BID): -1.74 kg
- mean change from baseline to EOT in body weight ([3]; 3.5 mg BID): -2.19 kg
- waist circumference, waist-hip ratio, percent body fat vs placebo ([3]; after 12 weeks): No statistically significant differences
- mean decreases from baseline LDL-C ([3]; after 12 weeks, 3 compound groups): −5.90 to −8.27 mg/dL
- triglyceride levels ([3]; all treatment groups): increased from baseline
- TC and ApoB ([3]; human, in vivo): improvements (reductions)
- weight loss by perilipin gene mutation ([3]; human, in vivo): no differences
